We go through five compounds from patent publication EP0293294A2, “Imidazo[1,2-a]pyrimidines and their salts, process and intermediates for their preparation, their use as medicaments and compositions containing them” (ROUSSEL-UCLAF, priority 1987, dated 1988).

The assay has as its target récepteurs des benzodiazépines. Briefly: Benzodiazepine receptor binding, [³H] flunitrazépam displacement (modified Squires and Braestrup method). On the set-up: species or system rats. To be noted: concentration inhibiting by 50% the specific binding of 0,6 nanomoles of [³H] flunitrazépam; rat forebrain membrane preparations; read-out: Liaison aux récepteurs CI50. An excerpt: L'affinité des composés pour les récepteurs des benzodiazépines a été évaluée en utilisant un radioligang [³H] flunitrazépam et la méthode de Squires et Braestrup (Nature, 1977, 266, 732) modifiée.
Les valeurs indiquées dans le tableau II ci-après sont les concentrations nanomolaires du produit testé qui inhibent dans une proportion de 50% la liaison spécifique de 0,6 nanomoles de [³H] flunitrazépam dans des préparations de membranes de cerveaux antérieurs de rats [(CI₅₀)en nanomoles].
In the case of `COc1nc2nc(C(=O)[C@@H]3C[C@H]3C#N)cn2c2c1CCCC2` (relative stereo) [Exemple 11, trans 2-(6,7,8,9-tétrahydro 5-méthoxyimidazo [1,2-a]quinazolin-2-oyl) cyclopropane carbonitrile], the IC50 was 1 µM. The result for `COc1nc2nc(C(=O)C3(C)CC3)cn2c2c1CCCC2` [Exemple 4, (6,7,8,9-tétrahydro 5-méthoxyimidazo [1,2-a]quinazolin-2-yl) 1-méthyl cyclopropyl méthanone] reads 6.3 µM; that for `CCOC(=O)[C@@H]1C[C@H]1C(=O)c1cn2c(C)c(CC)c(OC)nc2n1` (relative stereo) [Exemple 1, trans 2-(6-éthyl 7-méthoxy 5-méthylimidazo [1,2-a]pyrimidin-2-oyl) cyclopropane carboxylate d'éthyle], 0.56 µM.

On to `CCc1c(OC)nc2nc(C(=O)[C@@H]3C[C@H]3C)cn2c1C` (relative stereo) [Exemple 5, trans (6-éthyl 7-méthoxy 5-méthylimidazo [1,2-a]pyrimidin-2-yl) 2-méthyl cyclopropyl méthanone], for which the IC50 turned out to be 1.78 µM. In the case of `COc1nc2nc(C(=O)[C@@H]3C[C@H]3Cl)cn2c2c1CCCC2` (relative stereo) [Exemple 6, trans (6,7,8,9-tétrahydro 5-méthoxyimidazo [1,2 a]quinazolin--yl) 2-chlorocyclopropyl méthanone], the IC50 turned out to be 0.18 µM.
